This note sets out measurements from patent US6476017B2, “Compounds activating pharmacological effect of retinoids” (Institute of Medicinal Molecular Design, Inc., priority 1995, dated 2002).

The subject of the assay is promyelocytic leukemia cell strain HL-60. In words: Cell differentiation inducing activity of retinoids on HL-60 in presence/absence of test compound (NBT reduction). The format is cell-based. On the procedure: The effects of the compounds of the above Examples 1 and 2 on cell differentiation induced by retinoids were studied. As retinoid compounds (i.e., agonists against the all-trans retinoic acid receptor), retinoic acid and Am80 (4-[(5,6,7,8-tetrahydro-5,5,8,8-tetramethyl-2-naphthalenyl)carbamoyl]benzoic acid) were used. Cell differentiation inducing activities of the above retinoids on promyelocytic leukemia cell strain HL-60 were measured in the presence and absence of the compounds of Examples 1 and 2 according to the method described in the Japanese Patent Unexamined Publication (KOKAI) No.(Sho)61-76440/1986. The degrees of the differentiation into granulocytic cell were determined by observing nuclear morphologies and measuring abilities to reduce nitroblue tetrazolium (NBT). This method is well known in the art as a test that enables accurate evaluation of the cell differentiation inducing activity of retinoids. The results are shown in the Table 2 set out below (in the table, NTB positive ratio represents a percent value of differentiated cells based on living cells).
Effect of the compound of Example 10 (HX801) on the cell differentiation inducing activity by a retinoid was examined. Am80 was used as the retinoid compound and the cell differentiation inducing activity of the above retinoid on promyelocytic leukemia cell strain HL-60 was determined in the presence or absence of the compound of HX801 in the same manner as Example 15. The results are shown in the Table 3 set out below (in the table, the symbol “-” indicates no addition).

With `CN1c2cc3c(cc2N=C(c2ccc(C(=O)O)cc2)c2ccccc21)C(C)(C)CCC3(C)C` [LE135, 4-(5H-7,8,9,10-tetrahydro-5,7,7,10,10-pentamethylbenzo[e]naphto[2,3-b][1,4]diazepin-13-yl)benzoic acid, reference compound], the NBT positive ratio is, setting by setting: (Am80 1.0 × 10^−8 M + test compound 1.0 × 10^−6 M (LE135 series)) 34%; (Am80 1.0 × 10^−8 M + test compound 1.1 × 10^−7 M) 62%; (Am80 1.0 × 10^−8 M + test compound 3.3 × 10^−7 M) 51%; (Am80 1.1 × 10^−9 M + test compound 1.0 × 10^−6 M (LE135 series)) 2%; (Am80 1.1 × 10^−9 M + test compound 1.1 × 10^−7 M) 23%; (Am80 1.1 × 10^−9 M + test compound 3.3 × 10^−7 M) 5%. Further, the NBT positive ratio (Am80 3.3 × 10^−9 M + test compound 1.0 × 10^−6 M (LE135 series)) came out at 14%; the NBT positive ratio (Am80 3.3 × 10^−9 M + test compound 1.1 × 10^−7 M) turned out to be 54%; the NBT positive ratio (Am80 3.3 × 10^−9 M + test compound 3.3 × 10^−7 M) worked out at 32%; the NBT positive ratio (Am80 3.7 × 10^−10 M + test compound 1.0 × 10^−6 M (LE135 series)) is on record as 1.3%; the NBT positive ratio (Am80 3.7 × 10^−10 M + test compound 1.1 × 10^−7 M) worked out at 3%; the NBT positive ratio (Am80 3.7 × 10^−10 M + test compound 3.3 × 10^−7 M) came to 1.2%. Moreover, the “cell differentiation inducing activity of Am80” value (compound coexisting with Am80) is given as “significantly suppressed”.

Turning to `CC1=C(/C=C/C(C)=C/C=C/C(C)=C/C(=O)O)C(C)(C)CCC1` [Retinoic acid, retinoic acid, reference compound], the NBT positive ratio (Retinoic acid 1.0 × 10^−8 M alone, test compound absent) was determined as 54%; the NBT positive ratio (Retinoic acid 1.1 × 10^−9 M alone, test compound absent) came out at 14%; the NBT positive ratio (Retinoic acid 3.3 × 10^−9 M alone, test compound absent) came out at 36%.
